Patent US10660856B2, “Porous silica gel as a carrier for liquid technologies” (W.R. Grace & Co.-Conn., priority 2013, dated 2020)

Experiments:
Format in all cases: physicochemical
[1] = Oil release (Tocopherol) from tablets, dissolution with HPLC; settings: at 45 min, from tablets of Tocopherol loaded silica S2, 100 mg Tocopherol per tablet
Protocol: Oil Release (Tocopherol) from Tablets: The carrier materials used in the following trials was the material designated S2 in Example 1. Tocopherol was the liquid lipid that was loaded on to the silica. Silica S2 was loaded with liquid lipid pursuant to method of Example 8 and was used as the oil loaded carrier component in tablet. Tablets were prepared pursuant to the method in example 10. Tochopherol concentration in the tablet was 100 mg.
Tablets prepared were subjected to dissolution studies pursuant to the method described in Example 8. An aliquot of 2 mL was withdrawn at predetermined time interval and filtered through 0.22μ membrane filter. The dissolution samples were analyzed by using HPLC (Waters UPLC Wavelength: 294 nm Column: Rocket Format, 53×7 mm, 3μ) Mobile Phase: 85% ACN: 10% MeOH: 5% H2O.)

[2] = Oil or surfactant adsorption capacity on Sample S1 (ASTM D281 titration)
Protocol: Procedure: 2 to 5 g (based on bulk density) of the solid carrier material was placed in a 100 ml beaker and the oil or surfactant was added drop wise from a Burette, while mixing with spatula according to ASTM […]. The addition of oil or surfactant was continued until a thick paste-like mass formation. The addition of oil or surfactant was stopped when the mass appeared to contain excess oil. The Burette reading was recorded when the mass contained no excess oil or surfactant. The adsorption capacity was calculated using the below equation: [formula]

[3] = Specific gravity of oils and surfactants
[4] = oil adsorbed on Sample S1 material

In the case of `Cc1c(C)c2c(c(C)c1O)CCC(C)(CCCC(C)CCCC(C)CCCC(C)C)O2` (racemic) [dl-α-Tocopherol], the Tocopherol release [1] is reported as “≈ 100%”, the Adsorption capacity [2, 4] is reported as 292 g/100 g and the Specific gravity ([3]; oils, Table 2) is reported as 0.950 g/mL.

Compound `CCCCCCCC/C=C\CCCCCCCC(=O)O` [Oleic acid] has an Adsorption capacity [2, 4] of 300 g/100 g and a Specific gravity ([3]; oils, Table 2) of 0.895 g/mL.

In the case of `CCOCCOCCO` [Transcutol HP], the Adsorption capacity ([2]; surfactant adsorbed on Sample S1 material) is reported as 295 g/100 g and the Specific gravity ([3]; surfactants, Table 3) is reported as 0.987 g/mL.
